Measurements: patent publication US20250353842A1, “BICYCLIC AMINE CDK12 INHIBITORS” (Incyte Corporation, priority 2022, published 2025)

Molecular target: CDK12 complexed with Cyclin K (Homo sapiens (Human), UniProt Q9NYV4)
Assay: CDK enzymatic assay (HTRF, LANCE Ultra kinase assay)
Format: biochemical
Conditions: 60 minutes pre-incubation, 1 mM ATP
Experimental: The following activity of the CDK enzymes in complex with their respective cyclins we assayed: CDK1 complexed with Cyclin B1; CDK2 complexed with Cyclin E1; CDK4 complexed with Cyclin D1; CDK6 complexed with Cyclin D1; CDK6 complexed with Cyclin D3; CDK9 complexed with Cyclin T1; CDK7 complexed with Cyclin H/MAT1; CDK2 complexed with Cyclin A2; CDK5 complexed with p35; CDK12 complexed with Cyclin K; CDK13 complexed with Cyclin K. These in vitro enzyme activity are assayed using homogeneous time-resolved energy transfer (HTRF), which measures phosphorylation of a peptide substrate. The LANCE® Ultra kinase assay (PerkinElmer) uses a ULight™-labeled EIF4E-binding protein 1 (THR37/46) peptide (DYSTTPGGTLFSTTPGTRI) (SEQ ID NO: 1) substrate and a Europium-labeled anti-phospho-4E-BP1 antibody (CDK2, CDK1, CDK4, CDK6, CDK9, CDK12, CDK13) or ULight™-labeled Myelin Basic Protein peptide (VTPRTPPP) (SEQ ID NO: 2) substrate and a Europium-labeled anti-phospho-MBP antibody (CDK7). Each CDK enzyme activity assays utilized human CDK co-expressed as N-terminal GST-tagged protein with its full length cyclin partner using a baculovirus expression system.
Enzyme was pre-incubated with compounds for 30 minutes (CDK1,2,4,6,9) or 60 minutes (CDK7, CDK12, CDK13) prior to addition of ATP and Ulight-peptide (1 mM and 50 nM final, respectively), in assay buffer containing 50 mM HEPES pH 7.5, 1 mM EGTA, 10 mM MgCl2, 2 mM DTT, 0.05 mg/mL BSA, and 0.01% Tween 20.
The reaction was then incubated for 60-90 minutes at room temperature. The reactions were stopped by the addition of EDTA and Europium labeled antibody, for a final concentration of 15 mM and 1.0-1.5 nM, respectively. HTRF signals were read after 15-120 minutes. A ratio of fluorescence transferred to the labeled substrate (665 nm) relative to fluorescence of the Europium donor (620 nm) represents the extent of phosphorylation. Ratios for treated wells were normalized to DMSO only (100% activity) and no enzyme (0% activity) controls. Normalized data was analyzed using a three or four parameter dose response curve to determine IC50 for each compound and are shown in Table A. Control reference inhibitors were included on each plate.

CDK12 complexed with Cyclin K, sequence (Q9NYV4 whole entry): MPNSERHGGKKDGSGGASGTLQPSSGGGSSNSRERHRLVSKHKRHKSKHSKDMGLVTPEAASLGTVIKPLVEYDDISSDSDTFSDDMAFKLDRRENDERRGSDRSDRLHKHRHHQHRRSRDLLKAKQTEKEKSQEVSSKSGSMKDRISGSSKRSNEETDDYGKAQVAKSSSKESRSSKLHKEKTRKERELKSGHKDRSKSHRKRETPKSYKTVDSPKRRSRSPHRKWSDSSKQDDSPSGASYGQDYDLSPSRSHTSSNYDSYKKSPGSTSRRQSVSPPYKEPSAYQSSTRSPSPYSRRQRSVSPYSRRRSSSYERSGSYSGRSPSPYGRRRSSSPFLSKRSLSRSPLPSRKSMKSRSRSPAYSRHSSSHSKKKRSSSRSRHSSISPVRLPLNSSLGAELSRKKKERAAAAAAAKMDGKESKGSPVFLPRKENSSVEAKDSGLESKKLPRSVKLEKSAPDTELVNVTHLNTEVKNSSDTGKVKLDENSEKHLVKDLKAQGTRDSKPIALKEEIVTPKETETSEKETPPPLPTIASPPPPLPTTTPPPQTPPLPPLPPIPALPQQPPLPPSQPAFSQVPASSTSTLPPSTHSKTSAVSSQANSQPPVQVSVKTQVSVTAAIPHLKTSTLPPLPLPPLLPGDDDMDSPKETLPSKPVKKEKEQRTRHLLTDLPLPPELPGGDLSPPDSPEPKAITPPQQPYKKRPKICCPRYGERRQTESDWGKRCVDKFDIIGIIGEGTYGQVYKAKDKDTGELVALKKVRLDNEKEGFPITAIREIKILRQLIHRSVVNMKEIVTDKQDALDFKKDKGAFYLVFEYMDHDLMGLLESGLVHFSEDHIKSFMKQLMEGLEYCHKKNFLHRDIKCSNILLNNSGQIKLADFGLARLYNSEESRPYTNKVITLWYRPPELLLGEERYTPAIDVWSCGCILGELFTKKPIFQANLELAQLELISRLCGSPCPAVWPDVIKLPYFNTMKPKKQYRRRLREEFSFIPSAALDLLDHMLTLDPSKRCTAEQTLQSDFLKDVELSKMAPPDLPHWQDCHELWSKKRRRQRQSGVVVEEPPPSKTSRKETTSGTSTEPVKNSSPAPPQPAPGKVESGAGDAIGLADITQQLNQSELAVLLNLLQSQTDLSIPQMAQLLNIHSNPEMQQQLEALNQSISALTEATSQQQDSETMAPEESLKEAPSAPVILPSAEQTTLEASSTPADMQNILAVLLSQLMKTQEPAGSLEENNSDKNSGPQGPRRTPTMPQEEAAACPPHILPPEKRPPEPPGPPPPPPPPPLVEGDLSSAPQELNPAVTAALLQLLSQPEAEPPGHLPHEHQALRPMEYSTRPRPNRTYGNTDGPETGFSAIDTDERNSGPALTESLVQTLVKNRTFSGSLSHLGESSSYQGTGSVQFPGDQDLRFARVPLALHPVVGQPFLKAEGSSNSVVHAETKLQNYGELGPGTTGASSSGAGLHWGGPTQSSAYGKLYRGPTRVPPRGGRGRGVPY
CDK12 complexed with Cyclin K, sequence (O75909 whole entry partner): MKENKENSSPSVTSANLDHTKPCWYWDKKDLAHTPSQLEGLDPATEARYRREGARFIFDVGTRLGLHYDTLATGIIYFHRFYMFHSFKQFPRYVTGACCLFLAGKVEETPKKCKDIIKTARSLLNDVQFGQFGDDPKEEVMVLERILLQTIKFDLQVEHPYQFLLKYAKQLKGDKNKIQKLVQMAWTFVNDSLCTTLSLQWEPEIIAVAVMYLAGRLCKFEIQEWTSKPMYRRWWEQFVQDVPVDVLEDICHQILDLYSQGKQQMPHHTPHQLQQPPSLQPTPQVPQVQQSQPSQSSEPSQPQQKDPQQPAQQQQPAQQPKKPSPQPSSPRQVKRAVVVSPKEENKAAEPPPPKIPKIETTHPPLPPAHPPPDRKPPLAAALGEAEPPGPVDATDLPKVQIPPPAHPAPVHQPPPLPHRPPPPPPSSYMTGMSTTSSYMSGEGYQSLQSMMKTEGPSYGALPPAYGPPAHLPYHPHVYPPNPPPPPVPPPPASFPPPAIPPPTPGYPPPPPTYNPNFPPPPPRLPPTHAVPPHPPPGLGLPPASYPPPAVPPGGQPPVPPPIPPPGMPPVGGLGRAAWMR

IC50 [nM]	Structure (SMILES)
> 500	N#Cc1cnc2c(c1)ncn2[C@@H]1CCC[C@H](Nc2ncc(C#N)c(-c3cnn(CC(F)F)c3)n2)C1 [Example 35, 3-((1R,3S)-3-((5-Cyano-4-(1-(2,2-difluoroethyl)-1H-pyrazol-4-yl)pyrimidin-2-yl)amino)cyclohexyl)-3H-imidazo[4,5-b]pyridine-6-carbonitrile]
50 to 500	N#Cc1cnc2c(c1)ncn2[C@H]1CCC[C@@H](Nc2ncc(C#N)c(-c3cnn(CCN4CCOCC4)c3)n2)C1 [Example 60, 3-((1S,3R)-3-((5-Cyano-4-(1-(2-morpholinoethyl)-1H-pyrazol-4-yl)pyrimidin-2-yl)amino)cyclohexyl)-3H-imidazo[4,5-b]pyridine-6-carbonitrile]
< 50	N#Cc1cnc2c(c1)ncn2[C@H]1CCC[C@@H](Nc2ncc(C#N)c(-c3cnn(C4CNC4)c3)n2)C1 [Example 59, 3-((1S,3R)-3-((4-(1-(Azetidin-3-yl)-1H-pyrazol-4-yl)-5-cyanopyrimidin-2-yl)amino)cyclohexyl)-3H-imidazo[4,5-b]pyridine-6-carbonitrile]
< 50	N#Cc1cnc2c(c1)ncn2[C@H]1CCC[C@@H](Nc2ncc(C#N)c(-c3cnn(CC(F)F)c3)n2)C1 [9/9A, 3-((1S,3R)-3-((5-Cyano-4-(1-(2,2-difluoroethyl)-1H-pyrazol-4-yl)pyrimidin-2-yl)amino)cyclohexyl)-3H-imidazo[4,5-b]pyridine-6-carbonitrile]
< 50	N#Cc1cnc2c(c1)ncn2[C@H]1CCC[C@@H](Nc2ncc(C#N)c(-c3cnn(CCO)c3)n2)C1 [Example 68, 3-((1S,3R)-3-((5-Cyano-4-(1-(2-hydroxyethyl)-1H-pyrazol-4-yl)pyrimidin-2-yl)amino)cyclohexyl)-3H-imidazo[4,5-b]pyridine-6-carbonitrile]
< 50	CC(O)Cn1cc(-c2nc(N[C@@H]3CCC[C@H](n4cnc5cc(C#N)cnc54)C3)ncc2C#N)cn1 (stereo partly drawn) [Example 67, 3-((1S,3R)-3-((5-Cyano-4-(1-(2-hydroxypropyl)-1H-pyrazol-4-yl)pyrimidin-2-yl)amino)cyclohexyl)-3H-imidazo[4,5-b]pyridine-6-carbonitrile]
50 to 500	Cc1cnc(-c2nc(N[C@@H]3CCC[C@H](n4cnc5cc(C#N)cnc54)C3)ncc2C#N)n1C [Example 29, 3-((1S,3R)-3-((5-Cyano-4-(1,5-dimethyl-1H-imidazol-2-yl)pyrimidin-2-yl)amino)cyclohexyl)-3H-imidazo[4,5-b]pyridine-6-carbonitrile]
< 50	N#Cc1cnc2c(c1)ncn2[C@H]1CCC[C@@H](Nc2ncc(C#N)c(-c3cnn(-c4ccccc4)c3)n2)C1 [Example 65, 3-((1S,3R)-3-((5-Cyano-4-(1-phenyl-1H-pyrazol-4-yl)pyrimidin-2-yl)amino)cyclohexyl)-3H-imidazo[4,5-b]pyridine-6-carbonitrile]

Second part, the compound before the results:

Structure (SMILES)	IC50 [nM]
N#Cc1cc2ncn([C@H]3CCC[C@@H](Nc4ncc(C#N)c(-c5cnn(CC(F)F)c5)n4)C3)c2cn1 [Example 88, 3-((1S,3R)-3-((5-Cyano-4-(1-(2,2-difluoroethyl)-1H-pyrazol-4-yl)pyrimidin-2-yl)amino)cyclohexyl)-3H-imidazo[4,5-c]pyridine-6-carbonitrile]	< 50
N#Cc1cc(C#N)c2c(c1)ncn2[C@H]1CCC[C@@H](Nc2ncc(C#N)c(-c3cnn(CC(F)F)c3)n2)C1 [Example 50, 1-((1S,3R)-3-((5-Cyano-4-(1-(2,2-difluoroethyl)-1H-pyrazol-4-yl)pyrimidin-2-yl)amino)cyclohexyl)-1H-benzo[d]imidazole-5,7-dicarbonitrile]	< 50
N#Cc1cnc(N[C@@H]2CCC[C@H](n3cnc4cccc(Br)c43)C2)nc1-c1cnn(CC(F)F)c1 [Example 41, 2-(((1R,3S)-3-(7-Bromo-1H-benzo[d]imidazol-1-yl)cyclohexyl)amino)-4-(1-(2,2-difluoroethyl)-1H-pyrazol-4-yl)pyrimidine-5-carbonitrile]	< 50
Cc1ccncc1-c1cnc2c(c1)ncn2[C@H]1CCC[C@@H](Nc2ncc(C#N)c(-c3cnn(CC(F)F)c3)n2)C1 [Example 77, 4-(1-(2,2-Difluoroethyl)-1H-pyrazol-4-yl)-2-(((1R,3S)-3-(6-(4-methylpyridin-3-yl)-3H-imidazo [4,5-b]pyridin-3-yl)cyclohexyl)amino)pyrimidine-5-carbonitrile]	50 to 500
FC(F)Cn1cc(-c2nc(N[C@@H]3CCC[C@H](n4cnc5cc(C6CC6)cnc54)C3)ncc2C(F)(F)F)cn1 [Example 79, N-((1R,3S)-3-(6-Cyclopropyl-3H-imidazo[4,5-b]pyridin-3-yl)cyclohexyl)-4-(1-(2,2-difluoroethyl)-1H-pyrazol-4-yl)-5-(trifluoromethyl)pyrimidin-2-amine]	< 50
Cc1c(-c2nc(N[C@@H]3CCC[C@H](n4cnc5cccnc54)C3)ncc2C#N)cnn1C [Example 17, 2-(((1R,3S)-3-(3H-Imidazo[4,5-b]pyridin-3-yl)cyclohexyl)amino)-4-(1,5-dimethyl-1H-pyrazol-4-yl)pyrimidine-5-carbonitrile]	50 to 500
N#Cc1cnc(N[C@@H]2CCC[C@H](n3cnc4ccccc43)C2)nc1-c1cnn(CC(F)F)c1 [Example 3, 2-(((1R,3S)-3-(1H-Benzo[d]imidazol-1-yl)cyclohexyl)amino)-4-(1-(2,2-difluoroethyl)-1H-pyrazol-4-yl)pyrimidine-5-carbonitrile]	< 50
N#Cc1ccc2ncn([C@H]3CCC[C@@H](Nc4ncc(C#N)c(-c5cnn(CC(F)F)c5)n4)C3)c2c1 [Example 43, 1-((1S,3R)-3-((5-Cyano-4-(1-(2,2-difluoroethyl)-1H-pyrazol-4-yl)pyrimidin-2-yl)amino)cyclohexyl)-1H-benzo[d]imidazole-6-carbonitrile]	< 50
N#Cc1cc2ncn([C@H]3CCC[C@@H](Nc4ncc(C#N)c(-c5cnn(CC(F)F)c5)n4)C3)c2[n+]([O-])c1 [Example 53, 6-Cyano-3-((1S,3R)-3-((5-cyano-4-(1-(2,2-difluoroethyl)-1H-pyrazol-4-yl)pyrimidin-2-yl)amino)cyclohexyl)-3H-imidazo[4,5-b]pyridine 4-oxide]	< 50
N#Cc1cnc(N[C@@H]2CCC[C@H](n3cnc4cccnc43)C2)nc1-c1cnn2c1CCC2 [Example 18, 2-(((1R,3S)-3-(3H-Imidazo[4,5-b]pyridin-3-yl)cyclohexyl)amino)-4-(5,6-dihydro-4H-pyrrolo[1,2-b]pyrazol-3-yl)pyrimidine-5-carbonitrile]	< 50
CC(=O)N1CCN(c2cnc3c(c2)ncn3[C@H]2CCC[C@@H](Nc3ncc(C#N)c(-c4cnn(CC(F)F)c4)n3)C2)CC1 [Example 74, 2-(((1R,3S)-3-(6-(4-Acetylpiperazin-1-yl)-3H-imidazo[4,5-b]pyridin-3-yl)cyclohexyl)amino)-4-(1-(2,2-difluoroethyl)-1H-pyrazol-4-yl)pyrimidine-5-carbonitrile]	< 50
N#Cc1ccc2ncn([C@H]3CCC[C@@H](Nc4ncc(C#N)c(-c5cnn(CC(F)F)c5)n4)C3)c2n1 [Example 47, 3-((1S,3R)-3-((5-Cyano-4-(1-(2,2-difluoroethyl)-1H-pyrazol-4-yl)pyrimidin-2-yl)amino)cyclohexyl)-3H-imidazo[4,5-b]pyridine-5-carbonitrile]	< 50
N#Cc1cnc(N[C@@H]2CCC[C@H](n3cnc4cncc(C#N)c43)C2)nc1-c1cnn(CCO)c1 [Example 32, 1-((1S,3R)-3-((5-Cyano-4-(1-(2-hydroxyethyl)-1H-pyrazol-4-yl)pyrimidin-2-yl)amino)cyclohexyl)-1H-imidazo[4,5-c]pyridine-7-carbonitrile]	< 50
COC(=O)c1ccc2ncn([C@H]3CCC[C@@H](Nc4ncc(C(F)(F)F)c(-c5cnn(CC(F)F)c5)n4)C3)c2n1 [Example 5, Methyl 3-((1S,3R)-3-((4-(1-(2,2-difluoroethyl)-1H-pyrazol-4-yl)-5-(trifluoromethyl)pyrimidin-2-yl)amino)cyclohexyl)-3H-imidazo[4,5-b]pyridine-5-carboxylate]	< 50
N#Cc1cnc(N[C@@H]2CCC[C@H](n3cnc4cncc(Br)c43)C2)nc1-c1cnn(CC(F)F)c1 [Example 39, 2-(((1R,3S)-3-(7-Bromo-1H-imidazo[4,5-c]pyridin-1-yl)cyclohexyl)amino)-4-(1-(2,2-difluoroethyl)-1H-pyrazol-4-yl)pyrimidine-5-carbonitrile]	< 50
N#Cc1cncc2ncn([C@H]3CCC[C@@H](Nc4ncc(C(F)(F)F)c(-c5cnn(CC(F)F)c5)n4)C3)c12 [Example 52, 1-((1S,3R)-3-((4-(1-(2,2-Difluoroethyl)-1H-pyrazol-4-yl)-5-(trifluoromethyl)pyrimidin-2-yl)amino)cyclohexyl)-1H-imidazo[4,5-c]pyridine-7-carbonitrile]	< 50
